Test results as given in ChEMBL document CHEMBL1201862, “PubChem BioAssay data set” (2004).
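All cell lines were grown in 96-well plates and treated with compound for 48 hours. GI50 marks 50% less growth.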 The source made the active and inactive calls. Rule as the data show it: active = GI50 up to about 1.1 µM and inactive = higher.

Key:
Experiment in all cases: inhibition of tumour cell growth, NCI panel, 48 h
SN12C = tested on: SN12C
MDA-MB-435 = tested on: MDA-MB-435
Hs-578T = tested on: Hs-578T
RXF 393 = tested on: RXF 393
KM12 = tested on: KM12
SK-MEL-2 = tested on: SK-MEL-2
MCF7 = tested on: MCF7
CCRF-CEM = tested on: CCRF-CEM
BT-549 = tested on: BT-549
K562 = tested on: K562
ACHN = tested on: ACHN
OVCAR-3 = tested on: OVCAR-3
DU-145 = tested on: DU-145
SK-MEL-28 = tested on: SK-MEL-28
HCT-116 = tested on: HCT-116
TK-10 = tested on: TK-10
RPMI-8226 = tested on: RPMI-8226
HT-29 = tested on: HT-29
PC-3 = tested on: PC-3
M14 = tested on: M14

Measured: GI50

CCCCCCCCCCCCCCN [TETRADECYLAMINE]
inactive: SN12C > 100 µM | MDA-MB-435 > 100 µM | Hs-578T > 100 µM | RXF 393 > 100 µM | KM12 > 100 µM | SK-MEL-2 > 100 µM | MCF7 > 100 µM | CCRF-CEM > 100 µM | BT-549 > 100 µM | K562 > 100 µM | ACHN > 100 µM | OVCAR-3 > 100 µM | DU-145 > 100 µM | SK-MEL-28 > 100 µM | HCT-116 > 100 µM | TK-10 > 100 µM | RPMI-8226 > 100 µM | HT-29 > 100 µM | PC-3 > 100 µM

CC(C)C1OCC(CO)CO1 (stereo not given)
inactive: SN12C > 100 µM | MDA-MB-435 > 100 µM | Hs-578T > 100 µM | RXF 393 > 100 µM | KM12 > 100 µM | SK-MEL-2 > 100 µM | MCF7 > 100 µM | CCRF-CEM > 100 µM | BT-549 31.6 µM | ACHN > 100 µM | OVCAR-3 > 100 µM | DU-145 > 100 µM | M14 > 100 µM | SK-MEL-28 > 100 µM | HCT-116 > 100 µM | TK-10 > 100 µM | RPMI-8226 > 100 µM | HT-29 > 100 µM | PC-3 > 100 µM

OCCCN(CCc1ccc(Cl)c(Cl)c1)CCN1CCCC1
inactive: SN12C 73.3 µM | MDA-MB-435 22.3 µM | Hs-578T 38.8 µM | RXF 393 64.4 µM | KM12 45.7 µM | SK-MEL-2 18.9 µM | MCF7 27.4 µM | CCRF-CEM 30 µM | BT-549 40.2 µM | K562 19.5 µM | ACHN 64.6 µM | OVCAR-3 > 100 µM | DU-145 > 100 µM | M14 17.4 µM | HCT-116 47.9 µM | TK-10 40.6 µM | RPMI-8226 26.5 µM | HT-29 24.7 µM | PC-3 48.9 µM

CCOC(=O)CCC(C(=O)OCC)n1nnc2ccc(Nc3c(C)[n+]([O-])c4ccc(Cl)cc4[n+]3[O-])cc21 (stereo not given)
inactive: SN12C 46.2 µM | MDA-MB-435 51.9 µM | Hs-578T > 100 µM | RXF 393 26.9 µM | KM12 91.2 µM | SK-MEL-2 30.9 µM | MCF7 19.9 µM | CCRF-CEM 35 µM | BT-549 54.3 µM | K562 45.8 µM | ACHN 28.6 µM | OVCAR-3 32.1 µM | DU-145 50.6 µM | M14 37.5 µM | HCT-116 40.2 µM | TK-10 66.2 µM | RPMI-8226 28.6 µM | HT-29 52.7 µM | PC-3 > 100 µM

CC1(C(=O)O)CCC2(C)CCC3(C)C(=CC(=O)C4C5(C)CCC(O)C(C)(C)C5CCC43C)C2C1 (stereo not given)
inactive: SN12C 41.8 µM | MDA-MB-435 35.6 µM | Hs-578T 28.6 µM | RXF 393 36.1 µM | KM12 18.3 µM | SK-MEL-2 21.8 µM | MCF7 50.2 µM | CCRF-CEM 30.9 µM | BT-549 11.7 µM | ACHN 22.6 µM | OVCAR-3 19.3 µM | DU-145 29.6 µM | M14 36.3 µM | SK-MEL-28 22.1 µM | HCT-116 23.4 µM | TK-10 35.7 µM | RPMI-8226 > 10 µM | HT-29 20.2 µM | PC-3 36.1 µM
